What was measured:
[1] = test system: Age-Impaired (AI) Long-Evans rats; experiment: Morris Water Maze (MWM) retention trial, spatial memory of aged-impaired rats; type: in vivo, rat; conditions: retention trial 24 hours after last training trial
Experimental: FIG. 2 depicts the effects of administering levetiracetam on the spatial memory retention of six aged-impaired rats (AI) in a Morris Water Maze (MWM) test. Three treatment conditions were employed: vehicle control, levetiracetam (5 mg/kg/day) and levetiracetam (10 mg/kg/day). The AI rats were trained for two consecutive days, with a one-time treatment prior to the training trials per day. 24 hours later, the AI rats were tested. The time the AI rats, 24 hours after treatment with the different conditions and two days of training, spent swimming in the target quadrant or the target annulus in a memory retention trial is used as a measure of spatial memory retention. The target quadrant refers to the quadrant of the maze (which is a circular pool) where the escape platform is placed during the training trials. The target annulus refers to the exact location of the escape platform during the training trials.
The MWM apparatus consists of a large, circular pool (diameter 1.83 m; height, 0.58 m) filled with water (27° C.) that is made opaque through the addition of non-toxic pigment or some other substance. In the typical “hidden platform” version of the test, rats are trained to find a camouflaged white escape platform (height, 34.5 cm) that is positioned in the center of one quadrant of the maze about 1.0 cm below the water surface. This platform can be retracted to the bottom of the tank or raised to its normal position from outside the maze during behavioral testing. The location of the platform remains constant from trial to trial. […] The behavior of a rat in the pool is recorded by a camera that is suspended 2.5 m above the center of the pool. […]
The MWM protocol is optimized for sensitivity to the effects of aging on cognition and for measures of reliable individual differences within the aged population of out-bred Long-Evans rats (Gallagher et al. Behav. Neurosci. 107:618-626, (1993)). […] At the completion of the protocol using the hidden platform, rats are assessed for cue learning using the visible platform. […]

[2] = test system: aged-impaired (AI) rats; experiment: Radial Arm Maze (RAM) task with one-hour delay, spatial memory retention of aged-impaired rats; type: in vivo, rat; conditions: 30-40 minutes before trial, ten AI rats
Experimental: FIG. 3 depicts the effects of administering levetiracetam on the spatial memory retention of ten aged-impaired rats (AI) in an eight-arm Radial Arm Maze (RAM) test. Six treatment conditions were employed: vehicle control, levetiracetam (1.25 mg/kg/day), levetiracetam (2.5 mg/kg/day), levetiracetam (5 mg/kg/day), levetiracetam (10 mg/kg/day) and levetiracetam (20 mg/kg/day). In the RAM task used, there was a one-hour delay between presentation of a subset of arms (5 arms available and 3 arms blocked) and completion of the eight-arm win-shift task (eight arms available). Rats were pre-treated 30-40 minutes before daily trials with a one-time drug/control treatment. The number of errors made by the rats after the delay was used as a measure of spatial memory retention. Errors were defined as instances when rats entered an arm from which food had already been retrieved in the pre-delay component of the trial or when rats re-visited an arm in the post-delay session that had already been visited. […]
The effects of levetiracetam on the spatial memory retention of aged-impaired (AI) rats were assessed in a Radial Arm Maze (RAM) behavioral task using vehicle control and five different dosage levels of levetiracetam (1.25 mg/kg/day, 2.5 mg/kg/day, 5 mg/kg/day, 10 mg/kg/day and 20 mg/kg/day). […]

[3] = test system: memory-impaired aged rats; conditions: chronic subcutaneous administration, cited from earlier work
[4] = 100 mg/kg/day, chronic subcutaneous administration; cited from earlier work

## CC[C@@H](C(N)=O)N1CCCC1=O [levetiracetam, (2S)-2-(2-oxopyrrolidin-1-yl) butanamide]
[1]; 5 mg/kg/day i.p.
  time spent in the target quadrant, performance compared with vehicle: did not significantly improve
[1]; 10 mg/kg/day i.p.
  time spent in the target annulus: effectivness of the 10 mg/kg/day levetiracetam treatment was also seen
[1]; 10 mg/kg/day i.p., vehicle approximately 25%
  time spent in the target quadrant: approximately 35 % of total swimming time
[2]; 5 mg/kg/day i.p., vehicle 2.00±0.42, p=0.057
  average no. of errors ± standard error of the mean (SEM): 0.75±0.32
[2]; 10 mg/kg/day i.p., vehicle 2.00±0.42, p=0.042
  average no. of errors ± SEM: 0.80±0.27

## CCCC(CCC)C(=O)O [sodium valproate, 2-propylpentanoate]
[3]; 50 mg/kg/day
  treatment of age-related cognitive impairment: not effective
[3]; 100 mg/kg/day
  performance in a memory test: significantly improved
[4]
  blood total valproate level: 10 μg/ml plasma

From patent US8604075B2, “Methods and compositions for improving cognitive function” (The Johns Hopkins University, priority 2008, dated 2013)
